Experiments:
[1] = target: T1, Avi-KRAS G12D (1-169) GppNHp/RAF1 RBD-3xFLAG (52-151) (Homo sapiens, UniProt P01116, G12D); experiment: Raf1-KRAS G12D-GppNHP disruption HTRF assay (Biological Example 1); type: binding
T1 construct: Avi-KRAS G12D (1-169)
Procedure, shortened: (§1)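 HTRF PPI disruption; buffer 50 mM Tris pH 7.5, 100 mM NaCl, 5 mM MgCl2, 0.1% BSA, 0.01% Tween, 10% DMSO. Protein mix 1 h RT shaking, reagent mix 1 h RT shaking. Data as % activity vs DMSO (100%).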

[2] = target: T2, Avi-KRAS WT (1-169) GppNHp/RAF1 RBD-3xFLAG (52-151) (Homo sapiens, UniProt P01116); experiment: Raf1-KRAS WT-GppNHP disruption HTRF assay (Biological Example 1); type: binding
T2 construct: Avi-KRAS WT (1-169)
T2 sequence (P01116 1-169 isoform P01116-2): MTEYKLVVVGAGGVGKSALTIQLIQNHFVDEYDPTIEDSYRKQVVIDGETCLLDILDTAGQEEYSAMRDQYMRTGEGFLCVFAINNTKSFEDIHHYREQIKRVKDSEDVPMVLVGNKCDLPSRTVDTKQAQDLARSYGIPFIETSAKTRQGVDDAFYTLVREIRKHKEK
Procedure, shortened: as §1

GP2d cells (KRAS G12D) = experiment: Cell-based pERK HTRF assay in GP2d cell (Biological Example 2); details: GP2d (KRAS G12D) cells, pERK HTRF
Procedure, shortened: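 HTRF read-out of pERK (excitation 320 nm, emission 615 nm) after lysates sat 4–24 h at room temperature with Eu cryptate and d2 antibodies.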

SW620 cells (KRAS G12V) = experiment: Cell-based pERK HTRF assay in SW620 cell (Biological Example 4); details: pERK HTRF
Protocol: A pERK assay (Perkin Elmer) was used to determine the effectiveness of compounds in disrupting KRAS G12V protein/effector signaling in cells.
On Day 1, cells (SW620) were seeded into 96-well plates at 3×10^4 cells/well in 80 μL complete growth media (RPMI, 10% FBS).
On Day 2, cells were treated with compounds at 0.25% DMSO. The source plate was created with compounds diluted in media at 5-fold the final assay concentration. The compounds were run in a 9-point concentration curve starting at 1 μM, with a half-log dilution between concentrations. Twenty μL was transferred onto the cell plates (final volume in wells was 100 μL). Plates were harvested after 4 h incubation by aspirating media and adding kit-supplied 1x supplemented lysis buffer to all wells (50 μL per well). Plates were then placed on a plate shaker and incubated at 850 rpm for an additional 30 min.
Antibody mixture solution was prepared by diluting aliquoted d2 and Eu Cryptate antibodies 1:20 in kit supplied detection buffer and mixing the diluted antibodies solutions (1:1 v:v).
Samples were homogenized by pipetting up and down and then transferred (16 μL of cell lysates) from the 96-well cell culture plate to two wells of the HTRF 384-well detection plate containing the antibody solution. Plates were centrifuged (524 g for Imin) and allowed to incubate between 4 and 24 h at room temperature. […] Plates were centrifuged again (524 g for 1 min), then analyzed on the En Vision plate reader using the following settings: Excitation 320 nm, Bandwidth 75 nm; Emission 615 nm, Bandwidth 85 nm; Gain 100%; Flashes 100; Lag 60 μs.

[3] = target: T3, Avi-KRAS G12V (1-169) GppNHp/RAF1 RBD-3xFLAG (52-151) (Homo sapiens, UniProt P01116, G12V); experiment: Raf1-KRAS G12V-GppNHP disruption HTRF assay (Biological Example 1); type: binding
T3 construct: Avi-KRAS G12V (1-169)
T3 sequence (P01116 1-169 isoform P01116-2 G12V): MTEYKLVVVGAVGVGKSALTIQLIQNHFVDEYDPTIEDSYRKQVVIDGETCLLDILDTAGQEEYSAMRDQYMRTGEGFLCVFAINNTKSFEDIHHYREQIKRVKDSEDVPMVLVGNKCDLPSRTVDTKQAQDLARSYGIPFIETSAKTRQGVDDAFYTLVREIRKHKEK
Procedure, shortened: as §1

[4] = target: T4, Avi-KRAS G12R (1-169) GppNHp/RAF1 RBD-3xFLAG (52-151) (Homo sapiens, UniProt P01116, G12R); experiment: Raf1-KRAS G12R-GppNHP disruption HTRF assay (Biological Example 1); type: binding
T4 construct: Avi-KRAS G12R (1-169)
T4 sequence (P01116 1-169 isoform P01116-2 G12R): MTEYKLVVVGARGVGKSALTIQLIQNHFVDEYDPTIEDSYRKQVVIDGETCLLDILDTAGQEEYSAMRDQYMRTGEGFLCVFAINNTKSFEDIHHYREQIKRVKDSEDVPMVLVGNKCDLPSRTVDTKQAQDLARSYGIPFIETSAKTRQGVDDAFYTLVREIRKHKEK
Procedure, shortened: as §1

[5] = Homo sapiens, SW-620, SW620 (KRAS G12V) cells

T1 sequence (P01116 1-169 isoform P01116-2 G12D): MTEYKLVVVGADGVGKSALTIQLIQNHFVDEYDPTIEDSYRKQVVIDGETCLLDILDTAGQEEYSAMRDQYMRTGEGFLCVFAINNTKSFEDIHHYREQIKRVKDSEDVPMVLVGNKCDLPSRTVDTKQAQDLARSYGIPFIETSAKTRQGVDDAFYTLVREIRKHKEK

Compound: CN(c1nc(OC[C@@]23CCCN2C[C@H](F)C3)nc2c(F)c(-c3ccc(F)c4sc(N)c(C#N)c34)c(C(F)(F)F)cc12)[C@]1(CC#N)C[C@@H](O)C1 (atropisomer, axis not shown) [Compound 254]
- IC50 ([1]; KRAS G12D, GppNHp-loaded, Table 11): 100 to 1000 nM
- IC50 ([2]; KRAS WT, GppNHp-loaded, Table 11): 100 to 1000 nM
- IC50 (GP2d cells (KRAS G12D)): 100 to 1000 nM
- IC50 (SW620 cells (KRAS G12V); SW620 (KRAS G12V) cells): > 1000 nM
- IC50 ([3]; KRAS G12V, GppNHp-loaded, Table 11): 1000 to 10000 nM
- IC50 ([4]; KRAS G12R, GppNHp-loaded, Table 11): 1000 to 10000 nM

Compound: C[C@@H]1[C@H](N(C)c2nc(OC[C@@]34CCCN3C[C@H](F)C4)nc3c(F)c(-c4ccc(F)c5sc(N)c(C#N)c45)c(C(F)(F)F)cc23)CCN1C(=O)C1CC1 (atropisomer, axis not shown) [Compound 334]
- IC50 ([1]; KRAS G12D-GppNHp/RAF1 RBD HTRF): > 10000 nM
- IC50 ([2]; KRAS WT-GppNHp/RAF1 RBD HTRF): > 10000 nM
- IC50 (GP2d cells (KRAS G12D)): 100 to 1000 nM
- IC50 (SW620 cells (KRAS G12V); SW620 (KRAS G12V) cells): 100 to 1000 nM
- IC50 ([3]; KRAS G12V-GppNHp/RAF1 RBD HTRF): > 10000 nM
- IC50 ([4]; KRAS G12R-GppNHp/RAF1 RBD HTRF): > 10000 nM

Compound: CCC(=O)N1CC[C@@H](N(C)c2nc(OC[C@]34CCCN3C[C@H](F)C4)nc3c(F)c(-c4ccc(F)c5sc(N)c(C#N)c45)c(C(F)(F)F)cc23)[C@H]1C (atropisomer, axis not shown) [Compound 336]
- IC50 ([1]; KRAS G12D-GppNHp/RAF1 RBD HTRF): 1000 to 10000 nM
- IC50 ([2]; KRAS WT-GppNHp/RAF1 RBD HTRF): 1000 to 10000 nM
- IC50 (GP2d cells (KRAS G12D); GP2d): 100 to 1000 nM
- IC50 (SW620 cells (KRAS G12V); [5]): 100 to 1000 nM
- IC50 ([3]; KRAS G12V-GppNHp/RAF1 RBD HTRF): > 10000 nM
- IC50 ([4]; KRAS G12R-GppNHp/RAF1 RBD HTRF): > 10000 nM

Compound: CCN(c1nc(OC[C@@]23CCCN2C[C@H](F)C3)nc2c(F)c(-c3ccc(F)c4sc(N)c(C#N)c34)c(C(F)(F)F)cc12)[C@H]1CCS(=O)(=O)C1 (atropisomer, axis not shown) [Compound 491]
- IC50 ([1]; KRAS G12D-GppNHp/RAF1 RBD HTRF): 1000 to 10000 nM
- IC50 ([2]; KRAS WT-GppNHp/RAF1 RBD HTRF): 1000 to 10000 nM
- IC50 (GP2d cells (KRAS G12D)): 100 to 1000 nM
- IC50 (SW620 cells (KRAS G12V); SW620 (KRAS G12V) cells): 100 to 1000 nM
- IC50 ([3]; KRAS G12V-GppNHp/RAF1 RBD HTRF): > 10000 nM
- IC50 ([4]; KRAS G12R-GppNHp/RAF1 RBD HTRF): > 10000 nM

Compound: CCN(c1nc(OC[C@@]23CCCN2C[C@H](F)C3)nc2c(F)c(-c3ccc(F)c4sc(N)c(C#N)c34)c(C(F)(F)F)cc12)[C@H]1C[C@H](C)N(C(=O)N(C)C)C1 (atropisomer, axis not shown) [Compound 521]
- IC50 ([1]; KRAS G12D-GppNHp/RAF1 RBD HTRF): < 100 nM
- IC50 ([2]; KRAS WT-GppNHp/RAF1 RBD HTRF): 100 to 1000 nM
- IC50 (GP2d cells (KRAS G12D); GP2d): < 100 nM
- IC50 (SW620 cells (KRAS G12V); [5]): < 100 nM
- IC50 ([3]; KRAS G12V-GppNHp/RAF1 RBD HTRF): < 100 nM
- IC50 ([4]; KRAS G12R-GppNHp/RAF1 RBD HTRF): < 100 nM

Compound: CCN(c1nc(OC[C@@]23CCCN2C[C@H](F)C3)nc2c(F)c(-c3ccc(F)c4sc(N)c(C#N)c34)c(C(F)(F)F)cc12)[C@@H]1C[C@@H](C)N(C(=O)N(C)C)C1 (atropisomer, axis not shown) [Compound 525]
- IC50 ([1]; KRAS G12D-GppNHp/RAF1 RBD HTRF): 1000 to 10000 nM
- IC50 ([2]; KRAS WT-GppNHp/RAF1 RBD HTRF): 100 to 1000 nM
- IC50 (GP2d cells (KRAS G12D); GP2d): < 100 nM
- IC50 (SW620 cells (KRAS G12V); [5]): < 100 nM
- IC50 ([3]; KRAS G12V-GppNHp/RAF1 RBD HTRF): 1000 to 10000 nM
- IC50 ([4]; KRAS G12R-GppNHp/RAF1 RBD HTRF): 1000 to 10000 nM

Compound: CCN(c1nc(OC[C@@]23CCCN2C[C@H](F)C3)nc2c(F)c(-c3ccc(F)c4sc(N)c(C#N)c34)c(C(F)(F)F)cc12)[C@@H]1C[C@@H](C)N(C(=O)OC)C1 (atropisomer, axis not shown) [Compound 526]
- IC50 ([1]; KRAS G12D-GppNHp/RAF1 RBD HTRF): 100 to 1000 nM
- IC50 ([2]; KRAS WT-GppNHp/RAF1 RBD HTRF): 100 to 1000 nM
- IC50 (GP2d cells (KRAS G12D); GP2d): < 100 nM
- IC50 (SW620 cells (KRAS G12V); [5]): < 100 nM
- IC50 ([3]; KRAS G12V-GppNHp/RAF1 RBD HTRF): 100 to 1000 nM
- IC50 ([4]; KRAS G12R-GppNHp/RAF1 RBD HTRF): 100 to 1000 nM

Compound: C[C@@H]1Cn2nncc2CN1c1nc(OC[C@@]23CCCN2C[C@H](F)C3)nc2c(F)c(-c3ccc(F)c4sc(N)c(C#N)c34)c(C(F)(F)F)cc12 (atropisomer, axis not shown) [Compound 530]
- IC50 ([1]; KRAS G12D-GppNHp/RAF1 RBD HTRF): 100 to 1000 nM
- IC50 ([2]; KRAS WT-GppNHp/RAF1 RBD HTRF): 100 to 1000 nM
- IC50 (GP2d cells (KRAS G12D); GP2d): < 100 nM
- IC50 (SW620 cells (KRAS G12V); [5]): < 100 nM
- IC50 ([3]; KRAS G12V-GppNHp/RAF1 RBD HTRF): 100 to 1000 nM
- IC50 ([4]; KRAS G12R-GppNHp/RAF1 RBD HTRF): 100 to 1000 nM

Compound: CCN(c1nc(OC[C@@]23CCCN2C[C@H](F)C3)nc2c(F)c(-c3ccc(F)c4sc(N)c(C#N)c34)c(C(F)(F)F)cc12)[C@@H]1C[C@H](C)N(C(=O)OC)C1 (atropisomer, axis not shown) [Compound 544]
- IC50 ([1]; KRAS G12D-GppNHp/RAF1 RBD HTRF): 100 to 1000 nM
- IC50 ([2]; KRAS WT-GppNHp/RAF1 RBD HTRF): 100 to 1000 nM
- IC50 (GP2d cells (KRAS G12D); GP2d): < 100 nM
- IC50 (SW620 cells (KRAS G12V); [5]): < 100 nM
- IC50 ([3]; KRAS G12V-GppNHp/RAF1 RBD HTRF): 100 to 1000 nM
- IC50 ([4]; KRAS G12R-GppNHp/RAF1 RBD HTRF): 100 to 1000 nM
